Experimental data reported in patent publication US11241441B2, “Formulations of lixivaptan for the treatment of polycystic disease” (PALLADIO BIOSCIENCES, INC., priority 2017, dated 2022).

Tested on: PCK rats
Assay: In vivo study of the effects of lixivaptan on PCK rats
Design: species or system rat
Conditions: for % kidney weight/body weight: both genders
Experimental: A study was performed that examined the effect of lixivaptan (0.5% or 1% w/w lixivaptan in ground rodent chow) on bodyweight, kidney weight, kidney cAMP, urine output, and serum electrolyte concentration in PCK rats, an orthologous animal model of Autosomal Recessive PKD that develops a phenotype reminiscent of ADPKD.
Experimental animals and study design. PCK rats were divided into control and treatment groups at four weeks of age (n=59, ˜10 animals per treatment group and gender). Lixivaptan was dissolved in DMSO and added to ground rodent chow (Regrind Labdiet 5053) at 0.5% or 1.0% concentration (w/w) by homogenous mixing, whereas control animals received the same diet without lixivaptan. Animals were exposed to control- or lixivaptan-diet for eight weeks and were sacrificed at twelve weeks of age.
Experimental Protocol. […] At the end of the dosing period, the animals were weighed and anesthetized with ketamine 90 mg/kg and xylazine 10 mg/kg, IP. Blood samples were obtained by cardiac puncture for determination of plasma electrolytes, creatinine and plasma urea levels. The right kidney and part of the liver were placed into pre-weighed vials containing 10% formaldehyde in phosphate buffer (pH 7.4). The tissues were embedded in paraffin for histological studies. The left kidneys were immediately frozen in liquid nitrogen for determination of cAMP.
Statistical Analysis. Comparisons between groups were analyzed using one-way or two-way analysis of variance (ANOVA) with least significant difference comparisons of the means or student's t-test as appropriate. Data were expressed as means±SD.

[1] = PCK rats, 0.5% lixivaptan, compared to control
[2] = PCK rats, 0.5% lixivaptan, compared to control, p=0.08

`Cc1ccc(F)cc1C(=O)Nc1ccc(C(=O)N2Cc3cccn3Cc3ccccc32)c(Cl)c1` [Lixivaptan, 5-fluoro-2-methyl-N-[4-(5H-pyrrolo[2,1-C] [1,4]benzodiazepin-10(11H)-ylcarbonyl)-3-chlorophenyl]benzamide] was tested, and the “24 hr urine week 7” value (PCK rats F, 0.5% Lixivaptan) was 33.5 ± 8.6 mL, the “24 hr urine week 10” value (PCK rats F, 0.5% Lixivaptan) was 47.7 ± 16.8 mL and the “% Kidney/Body Weight” value (PCK rats F, 0.5% Lixivaptan) was 1.11 ± 0.10 %. The “% Liver/Body Weight” value (PCK rats F, 0.5% Lixivaptan) was 5.72 ± 0.42%, the “Kidney Cyst Score” value (PCK rats F, 0.5% Lixivaptan) was 7.1 ± 4.2 % and the “Kidney Fibrosis Score” value (PCK rats F, 0.5% Lixivaptan) was 2.0 ± 1.1%. The “Liver Cyst Score” value (PCK rats F, 0.5% Lixivaptan) was 3.7 ± 0.8%, the “Liver Fibrois Score” value (PCK rats F, 0.5% Lixivaptan) was 2.7 ± 0.3% and the “Liver Weight” value (PCK rats F, 0.5% Lixivaptan) was 14.5 ± 1.6 g. The “Plasma Creatinine” value (PCK rats F, 0.5% Lixivaptan) was 0.64 ± 0.08 mg/dL, the “Plasma Sodium” value (PCK rats F, 0.5% Lixivaptan) was 145 ± 2 mEq/L and the “Plasma Urea” value (PCK rats F, 0.5% Lixivaptan) was 32.3 ± 3.9 mg/dL. For the same compound, the “Total Kidney Weight” value (PCK rats F, 0.5% Lixivaptan) was 2.82 ± 0.33 g, the “24 hr urine week 7” value (PCK rats F, 1.0% Lixivaptan) was 39.7 ± 14.2 mL and the “24 hr urine week 10” value (PCK rats F, 1.0% Lixivaptan) was 54.8 ± 19.3 mL. The “% Kidney/Body Weight” value (PCK rats F, 1.0% Lixivaptan) was 1.75 ± 0.99%, the “% Liver/Body Weight” value (PCK rats F, 1.0% Lixivaptan) was 7.11 ± 2.61% and the “Kidney Cyst Score” value (PCK rats F, 1.0% Lixivaptan) was 11.9 ± 3.1%. The “Kidney Fibrosis Score” value (PCK rats F, 1.0% Lixivaptan) was 2.1 ± 0.8%, the “Liver Cyst Score” value (PCK rats F, 1.0% Lixivaptan) was 6.2 ± 2.7% and the “Liver Fibrois Score” value (PCK rats F, 1.0% Lixivaptan) was 4.1 ± 1.4%. For the same compound, the “Liver Weight” value (PCK rats F, 1.0% Lixivaptan) was 16.8 ± 6.7 g, the “Plasma Creatinine” value (PCK rats F, 1.0% Lixivaptan) was 0.68 ± 0.06 mg/dL and the “Plasma Sodium” value (PCK rats F, 1.0% Lixivaptan) was 143 ± 3 mEq/L. For the same compound, the “Plasma Urea” value (PCK rats F, 1.0% Lixivaptan) was 37.7 ± 10.5 mg/dL, the “Total Kidney Weight” value (PCK rats F, 1.0% Lixivaptan) was 4.14 ± 2.46 g and the “24 hr urine week 7” value (PCK rats M, 0.5% Lixivaptan) was 45.5 ± 9.1 mL. For the same compound, the “24 hr urine week 10” value (PCK rats M, 0.5% Lixivaptan) was 53.5 ± 14.3 mL, the “% Kidney/Body Weight” value (PCK rats M, 0.5% Lixivaptan) was 1.37 ± 0.45% and the “% Liver/Body Weight” value (PCK rats M, 0.5% Lixivaptan) was 5.49 ± 0.44%. The “Kidney Cyst Score” value (PCK rats M, 0.5% Lixivaptan) was 7.7 ± 1.7 %, the “Kidney Fibrosis Score” value (PCK rats M, 0.5% Lixivaptan) was 1.8 ± 1.2% and the “Liver Cyst Score” value (PCK rats M, 0.5% Lixivaptan) was 3.2 ± 1.6%. For the same compound, the “Liver Fibrois Score” value (PCK rats M, 0.5% Lixivaptan) was 3.1 ± 1.1%, the “Liver Weight” value (PCK rats M, 0.5% Lixivaptan) was 23.8 ± 2.3 g and the “Plasma Creatinine” value (PCK rats M, 0.5% Lixivaptan) was 0.63 ± 0.07 mg/dL. The “Plasma Sodium” value (PCK rats M, 0.5% Lixivaptan) was 147 ± 4 mEq/L, the “Plasma Urea” value (PCK rats M, 0.5% Lixivaptan) was 32.2 ± 5.8 mg/dL and the “Total Kidney Weight” value (PCK rats M, 0.5% Lixivaptan) was 5.97 ± 2.04 g. For the same compound, the “24 hr urine week 7” value (PCK rats M, 1.0% Lixivaptan) was 53.9 ± 7.4 mL, the “24 hr urine week 10” value (PCK rats M, 1.0% Lixivaptan) was 63.7 ± 10.1 mL and the “% Kidney/Body Weight” value (PCK rats M, 1.0% Lixivaptan) was 1.47 ± 0.46%. The “% Liver/Body Weight” value (PCK rats M, 1.0% Lixivaptan) was 5.60 ± 0.61%, the “Kidney Cyst Score” value (PCK rats M, 1.0% Lixivaptan) was 12.0 ± 3.7 % and the “Kidney Fibrosis Score” value (PCK rats M, 1.0% Lixivaptan) was 2.9 ± 1.3%. For the same compound, the “Liver Cyst Score” value (PCK rats M, 1.0% Lixivaptan) was 5.8 ± 1.3%, the “Liver Fibrois Score” value (PCK rats M, 1.0% Lixivaptan) was 4.2 ± 2.0% and the “Liver Weight” value (PCK rats M, 1.0% Lixivaptan) was 22.5 ± 2.7 g. The “Plasma Creatinine” value (PCK rats M, 1.0% Lixivaptan) was 0.67 ± 0.04 mg/dL, the “Plasma Sodium” value (PCK rats M, 1.0% Lixivaptan) was 147 ± 1 mEq/L and the “Plasma Urea” value (PCK rats M, 1.0% Lixivaptan) was 32.3 ± 5.0 mg/dL. For the same compound, the “Total Kidney Weight” value (PCK rats M, 1.0% Lixivaptan) was 5.92 ± 1.95 g, the “improvement in cystic phenotype compared to control” value (PCK rats, 0.5% lixivaptan) was 54% and the “increase in serum sodium” value (PCK rats, 0.5% lixivaptan) was 1.6%. For the same compound, the “reduction in kidney weight as a percentage of body weight (relative kidney size)” value [1] was 26%, the “reduction in liver cyst score” value [1] was 39% and the “reduction in liver fibrosis score” value [2] was 20.6%. For the same compound, the “reduction in ratio of liver weight vs. body weight” value [2] was 5.2%, the “beneficial effect on kidney fibrosis score” value (PCK rats, 0.5% lixivaptan, p=0.12) was 30% and the “increase in 24 h urine output” value (PCK rats, 0.5% lixivaptan, study week 3 (rats at 7 weeks of age)) was 175%. The “increase in 24 h urine output” value (PCK rats, 0.5% lixivaptan, study week 6 (rats at 10 weeks of age)) was 189%, the “effect on liver pathology” value (PCK rats, 1.0% lixivaptan) was “did not separate from control” and the “improvement in cystic phenotype compared to control” value (PCK rats, 1.0% lixivaptan) was 25%. The “increase in urine output” value (PCK rats, 1.0% lixivaptan, Study week 3) was 223%, the “increase in urine output” value (PCK rats, 1.0% lixivaptan, Study week 6) was 237% and the “% kidney weight/body weight” value (PCK rats, 0.5% lixivaptan) was 1.2%. The “% kidney weight/body weight” value (PCK rats, 1.0% lixivaptan, all animals) was 1.6%, the “% kidney weight/body weight” value (PCK rats, 1.0% lixivaptan, three outliers removed) was 1.3% and the “reduction in serum creatinine” value (PCK rats, compared to control) was 13.2%.
